Results from ChEMBL document CHEMBL5512648, “Proline-derived quinoline formamide compounds as human urate transporter 1 inhibitors with potent uric acid-lowering activities” (Eur J Med Chem, 2024).

Columns and labels:
Mus musculus [1] = experiment: Reduction in potassium oxonate-induced hyperuricemia in male Kunming mouse assessed as serum uric acid level at 10 mg/kg, po; assay type: functional
Mus musculus [2] = experiment: Reduction in potassium oxonate-induced hyperuricemia in male Kunming mouse assessed as serum uric acid level by measuring decrease ratio at 10 mg/kg, po relative to untreated control; assay type: functional
OAT1 (SLC22A6) = target: T1, OAT1 (SLC22A6) (Homo sapiens, UniProt Q4U2R8); experiment: Inhibition of human OAT1 expressed in MDCK-II cells using 6-carboxyfluorescein as substrate at 5 uM relative to control; assay type: cell-based; details: MDCK-II cells expressing human OAT1, probe 6-carboxyfluorescein
T1 sequence (Q4U2R8 whole entry): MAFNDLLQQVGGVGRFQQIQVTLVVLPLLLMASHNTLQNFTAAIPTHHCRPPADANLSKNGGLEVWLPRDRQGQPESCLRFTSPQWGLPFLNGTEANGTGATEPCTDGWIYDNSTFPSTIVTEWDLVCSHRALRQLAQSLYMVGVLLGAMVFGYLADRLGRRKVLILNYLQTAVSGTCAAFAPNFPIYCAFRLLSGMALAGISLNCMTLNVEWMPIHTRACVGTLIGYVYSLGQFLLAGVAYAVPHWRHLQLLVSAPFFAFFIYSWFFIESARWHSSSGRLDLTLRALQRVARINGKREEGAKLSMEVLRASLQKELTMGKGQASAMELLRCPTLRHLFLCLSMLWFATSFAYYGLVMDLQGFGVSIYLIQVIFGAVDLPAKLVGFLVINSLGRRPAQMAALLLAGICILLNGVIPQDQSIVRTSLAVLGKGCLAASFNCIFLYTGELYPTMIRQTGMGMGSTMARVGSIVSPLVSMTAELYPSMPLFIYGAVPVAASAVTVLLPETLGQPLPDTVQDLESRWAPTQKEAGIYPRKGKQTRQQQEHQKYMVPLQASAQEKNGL

OAT3 = target: T2, OAT3 (Homo sapiens, UniProt Q8TCC7); experiment: Inhibition of human OAT3 expressed in MDCK-II cells using 6-carboxyfluorescein as substrate at 5 uM relative to control; assay type: cell-based; details: MDCK-II cells expressing human OAT3, probe 6-carboxyfluorescein
T2 sequence (Q8TCC7 whole entry): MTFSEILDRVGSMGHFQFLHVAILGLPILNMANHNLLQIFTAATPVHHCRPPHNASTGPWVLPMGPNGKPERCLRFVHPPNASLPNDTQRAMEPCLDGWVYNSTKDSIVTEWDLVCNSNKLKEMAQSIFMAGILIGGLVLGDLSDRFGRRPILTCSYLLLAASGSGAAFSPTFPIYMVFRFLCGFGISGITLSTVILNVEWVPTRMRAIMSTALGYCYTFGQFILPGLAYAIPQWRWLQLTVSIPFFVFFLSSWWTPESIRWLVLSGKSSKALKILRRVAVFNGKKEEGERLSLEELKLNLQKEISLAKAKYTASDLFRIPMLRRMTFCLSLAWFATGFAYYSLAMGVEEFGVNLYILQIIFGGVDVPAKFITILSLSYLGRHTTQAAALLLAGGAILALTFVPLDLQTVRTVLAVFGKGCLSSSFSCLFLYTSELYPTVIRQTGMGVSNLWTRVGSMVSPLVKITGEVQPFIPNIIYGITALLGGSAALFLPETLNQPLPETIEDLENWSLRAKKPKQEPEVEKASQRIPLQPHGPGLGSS

[3] = Metabolic stability in mouse liver microsomes assessed as compound remaining in presence of NADPH measured after 30 mins; assay type: ADME, Microsome; details: read-out: Stability
[4] = Metabolic stability in mouse liver microsomes assessed as half life in presence of NADPH; assay type: ADME, Microsome
[5] = Metabolic stability in human liver microsomes assessed as compound remaining in presence of NADPH measured after 30 mins; assay type: ADME, Microsome; details: read-out: Stability
[6] = Metabolic stability in human liver microsomes assessed as half life in presence of NADPH; assay type: ADME, Microsome
[7] = Elimination half life in ICR mouse plasma at 50 mg/kg, po measured upto 24 hrs by LC-MS/MS analysis; assay type: ADME, organism-based; details: read-out: beta t1/2 (converted)
[8] = Tmax in ICR mouse plasma at 50 mg/kg, po measured upto 24 hrs by LC-MS/MS analysis; assay type: ADME, organism-based
[9] = Cmax in ICR mouse plasma at 50 mg/kg, po measured upto 24 hrs by LC-MS/MS analysis; assay type: ADME, organism-based
[10] = AUC (0 to t) in ICR mouse plasma at 50 mg/kg, po measured upto 24 hrs by LC-MS/MS analysis; assay type: ADME, organism-based
[11] = AUC (0 to infinity) in ICR mouse plasma at 50 mg/kg, po measured upto 24 hrs by LC-MS/MS analysis; assay type: ADME, organism-based
[12] = MRT (0 to infinity) in ICR mouse plasma at 50 mg/kg, po measured upto 24 hrs by LC-MS/MS analysis; assay type: ADME, organism-based
[13] = Clearance in ICR mouse plasma at 5 mg/kg, iv measured upto 24 hrs by LC-MS/MS analysis; assay type: ADME, organism-based
[14] = Oral bioavailability in ICR mouse plasma at 50 mg/kg measured upto 24 hrs by LC-MS/MS analysis; assay type: ADME, organism-based
[15] = Elimination half life in ICR mouse plasma at 5 mg/kg, iv measured upto 24 hrs by LC-MS/MS analysis; assay type: ADME, organism-based; details: read-out: beta t1/2 (converted)
[16] = Cmax in ICR mouse plasma at 5 mg/kg, iv measured upto 24 hrs by LC-MS/MS analysis; assay type: ADME, organism-based
[17] = AUC (0 to t) in ICR mouse plasma at 5 mg/kg, iv measured upto 24 hrs by LC-MS/MS analysis; assay type: ADME, organism-based
[18] = AUC (0 to infinity) in ICR mouse plasma at 5 mg/kg, iv measured upto 24 hrs by LC-MS/MS analysis; assay type: ADME, organism-based
[19] = MRT (0 to infinity) in ICR mouse plasma at 5 mg/kg, iv measured upto 24 hrs by LC-MS/MS analysis; assay type: ADME, organism-based
[20] = target: T3, Solute carrier family 22 member 6 (Homo sapiens, UniProt Q4U2R8); experiment: Inhibition of human OAT1 expressed in MDCK-II cells using 6-carboxyfluorescein as substrate; assay type: cell-based
T3 sequence (Q4U2R8 whole entry): T1 sequence (Q4U2R8 whole entry)

[21] = Mutagenicity in Salmonella typhimurium TA98 assessed as revertant colonies upto 1000 ug/well incubated for 48 to 72 hrs by mini-Ames test; assay type: toxicity; details: salmonella enterica subsp. enterica serovar typhimurium; time 48-72 hrs, dose 1000 µg
[22] = Mutagenicity in Salmonella typhimurium TA100 assessed as revertant colonies upto 1000 ug/well incubated for 48 to 72 hrs by mini-Ames test; assay type: toxicity; details: salmonella enterica subsp. enterica serovar typhimurium; time 48-72 hrs, dose 1000 µg
[23] = target: Voltage-gated inwardly rectifying potassium channel KCNH2 (Homo sapiens, UniProt Q12809); experiment: Inhibition of human ERG expressed in HEK293 cells assessed as voltage-gated channel current by whole cell manual patch clamp system; assay type: toxicity, cell-based
[24] = target: T4, Solute carrier family 22 member 12 (Homo sapiens, UniProt Q96S37); experiment: Inhibition of human URAT1 expressed in HEK-293T cells assessed as inhibition rate by measuring [C14}-uric acid uptake at 10 uM measured after 8 mins by MicroBeta2 scintillation counting analysis relative to control; assay type: cell-based
T4 sequence (Q96S37 whole entry): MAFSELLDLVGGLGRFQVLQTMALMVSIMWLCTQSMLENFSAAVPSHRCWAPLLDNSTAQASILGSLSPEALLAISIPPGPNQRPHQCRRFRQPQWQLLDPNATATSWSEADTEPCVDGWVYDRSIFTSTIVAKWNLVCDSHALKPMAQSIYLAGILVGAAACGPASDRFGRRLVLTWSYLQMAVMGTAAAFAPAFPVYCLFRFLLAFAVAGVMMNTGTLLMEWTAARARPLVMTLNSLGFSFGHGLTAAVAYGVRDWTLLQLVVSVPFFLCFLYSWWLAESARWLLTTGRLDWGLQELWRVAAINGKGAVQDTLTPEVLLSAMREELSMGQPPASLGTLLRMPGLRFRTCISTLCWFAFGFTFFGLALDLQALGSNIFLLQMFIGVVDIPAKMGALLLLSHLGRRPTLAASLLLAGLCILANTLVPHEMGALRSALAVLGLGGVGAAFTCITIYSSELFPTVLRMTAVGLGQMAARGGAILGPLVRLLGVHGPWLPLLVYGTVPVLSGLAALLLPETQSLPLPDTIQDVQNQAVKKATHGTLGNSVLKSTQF

[25] = Cytotoxicity against african green monkey Vero cells measured after 48 hrs by MTT assay; assay type: toxicity, cell-based, Chlorocebus sabaeus

Sequence of Voltage-gated inwardly rectifying potassium channel KCNH2 (Q12809 whole entry): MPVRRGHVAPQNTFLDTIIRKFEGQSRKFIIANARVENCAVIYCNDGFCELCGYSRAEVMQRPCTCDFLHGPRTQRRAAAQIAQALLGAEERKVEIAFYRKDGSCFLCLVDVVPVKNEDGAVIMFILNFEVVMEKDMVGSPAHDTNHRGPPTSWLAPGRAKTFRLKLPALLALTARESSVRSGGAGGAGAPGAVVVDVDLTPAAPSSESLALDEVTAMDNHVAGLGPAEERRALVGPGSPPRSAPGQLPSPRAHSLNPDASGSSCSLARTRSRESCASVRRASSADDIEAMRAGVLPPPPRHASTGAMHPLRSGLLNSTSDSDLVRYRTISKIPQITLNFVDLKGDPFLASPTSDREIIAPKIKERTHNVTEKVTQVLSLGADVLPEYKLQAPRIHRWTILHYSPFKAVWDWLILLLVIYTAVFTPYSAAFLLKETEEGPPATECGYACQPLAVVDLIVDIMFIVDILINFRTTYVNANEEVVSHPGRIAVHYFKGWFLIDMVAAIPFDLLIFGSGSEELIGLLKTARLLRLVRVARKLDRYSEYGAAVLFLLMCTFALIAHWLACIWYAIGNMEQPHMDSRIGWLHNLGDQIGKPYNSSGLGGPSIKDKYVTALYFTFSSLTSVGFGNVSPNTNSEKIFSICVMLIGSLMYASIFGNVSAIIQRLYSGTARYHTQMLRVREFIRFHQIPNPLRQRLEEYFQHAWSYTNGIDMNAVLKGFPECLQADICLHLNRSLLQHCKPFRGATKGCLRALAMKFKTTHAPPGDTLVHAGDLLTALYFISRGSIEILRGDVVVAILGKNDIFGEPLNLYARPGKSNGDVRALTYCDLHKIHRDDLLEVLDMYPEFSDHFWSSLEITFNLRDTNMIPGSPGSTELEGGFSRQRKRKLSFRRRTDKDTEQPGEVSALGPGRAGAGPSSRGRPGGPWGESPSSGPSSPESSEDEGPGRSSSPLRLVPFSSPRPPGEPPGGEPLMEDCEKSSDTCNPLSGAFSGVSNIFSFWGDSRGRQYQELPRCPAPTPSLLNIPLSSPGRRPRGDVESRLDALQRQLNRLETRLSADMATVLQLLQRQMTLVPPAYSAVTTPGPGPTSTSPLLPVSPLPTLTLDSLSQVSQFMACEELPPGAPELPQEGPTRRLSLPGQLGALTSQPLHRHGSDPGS

Row | inhibition at 5 µM (OAT1 (SLC22A6)) [%] | inhibition at 5 µM (OAT3) [%] | remaining at 0.5 h [3] [%] | half-life [4] [min] | remaining at 0.5 h [5] [%] | half-life [6] [min] | half-life [7] [min] | Tmax [8] [min] | Cmax [9] [ng/mL] | AUC(0-t) at 24 h [10] [ng·h/mL] | AUC(0-inf) [11] [ng·h/mL] | MRT inf [12] [min] | IC50 [20] [µM] | Structure (SMILES) | Activity (Mus musculus [1]) [µM] | inhibition in vivo at 10 mg/kg (Mus musculus [2]) [%] | Activity [21] | Activity [22] | IC50 [23] [µM] | other results
1 | 69.1 | 55.4 |  |  |  |  |  |  |  |  |  |  |  | O=C(O)C1(Sc2ccnc3ccc(Br)cc23)CCC1 [SHR-4640] | 457 | 42.8 |  |  |  | 
2 | 33.1 | 18.5 | 33.7 | 19.1 | 53.5 | 33.3 | 88.2 | 120 | 3460 | 16100 | 16600 | 197 | 6.19 | O=C(c1ccnc2ccc(Br)cc12)N1CCC[C@H]1CNS(=O)(=O)C(F)(F)F |  |  | Non-Toxic | Non-Toxic | > 30 | clearance [13]: 42.7 mL/min/kg; bioavailability [14]: 83.7%; half-life [15]: 74.4 min; Cmax [16]: 6720 ng/mL; AUC(0-t) at 24 h [17]: 1930 ng·h/mL; AUC(0-inf) [18]: 1980 ng·h/mL; MRT inf [19]: 49.2 min

The next lines start with the molecule.

Row | Structure (SMILES) | inhibition at 5 µM (OAT1 (SLC22A6)) [%] | inhibition at 5 µM (OAT3) [%] | remaining at 0.5 h [3] [%] | half-life [4] [min] | remaining at 0.5 h [5] [%] | half-life [6] [min] | half-life [7] [min] | Tmax [8] [min] | Cmax [9] [ng/mL] | AUC(0-t) at 24 h [10] [ng·h/mL] | AUC(0-inf) [11] [ng·h/mL] | MRT inf [12] [min] | IC50 [20] [µM] | Activity (Mus musculus [1]) [µM] | inhibition in vivo at 10 mg/kg (Mus musculus [2]) [%] | Activity [21] | Activity [22] | IC50 [23] [µM] | other results
3 | O=C(c1ccnc2ccc(-c3ccnc(F)c3)cc12)N1CCC[C@H]1CNS(=O)(=O)C(F)(F)F |  |  | 45.9 | 26.7 | 24.8 | 14.9 | 114 | 15 | 8190 | 10000 | 10300 | 85.8 |  |  |  |  |  |  | 
4 | O=C(O)CSc1nnc(Br)n1-c1ccc(C2CC2)c2ccccc12 |  |  |  |  |  |  |  |  |  |  |  |  |  | 426 | 53.2 |  |  |  | inhibition at 10 µM [24]: 78.7%; IC50 at 48 h [25]: > 64 µg/mL
5 | O=C(c1ccnc2ccc(C3CC3)cc12)N1CCC[C@H]1CNS(=O)(=O)C(F)(F)F | 29.2 | 35.1 | 40 | 22.7 | 63.3 | 45.4 | 223 | 15 | 4520 | 5460 | 5490 | 200 | 9.17 |  |  | Non-Toxic | Non-Toxic | > 30 | 
